T1: recombinant active Casp6 (Homo sapiens, UniProt P55212, INS179NQTEKLDTNITEVD)
T1 construct: generating mainly large subunit with a linker (LS-L), small subunit (SS), and a minor amount of large subunit (LS); His (C); made in house; host or cells: E. coli BL21(DE3)pLysS
T1 sequence (P55212 24-193 limits assumed): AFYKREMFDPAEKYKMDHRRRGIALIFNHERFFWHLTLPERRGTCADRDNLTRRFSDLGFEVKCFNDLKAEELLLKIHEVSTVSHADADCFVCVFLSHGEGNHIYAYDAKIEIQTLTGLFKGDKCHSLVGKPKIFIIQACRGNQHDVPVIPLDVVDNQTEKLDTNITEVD
T1 sequence (P55212 194-293 limits assumed): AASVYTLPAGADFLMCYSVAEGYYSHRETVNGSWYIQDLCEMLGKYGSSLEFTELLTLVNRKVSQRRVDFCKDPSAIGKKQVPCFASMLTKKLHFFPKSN

T2: recombinant active Casp6 (Casp6-WT) (Homo sapiens, UniProt P55212, INS179NQTEKLDTNITEVD)
T2 construct: generating mainly large subunit with a linker (LS-L), small subunit (SS), and a minor amount of large subunit (LS); His (C); made in house; host or cells: E. coli BL21(DE3)pLysS
T2 sequence (P55212 24-193 limits assumed): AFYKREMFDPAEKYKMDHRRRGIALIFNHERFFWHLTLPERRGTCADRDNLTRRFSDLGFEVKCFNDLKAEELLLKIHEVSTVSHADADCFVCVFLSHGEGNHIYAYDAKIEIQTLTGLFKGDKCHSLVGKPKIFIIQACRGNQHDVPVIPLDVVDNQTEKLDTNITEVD
T2 sequence (P55212 194-293 limits assumed): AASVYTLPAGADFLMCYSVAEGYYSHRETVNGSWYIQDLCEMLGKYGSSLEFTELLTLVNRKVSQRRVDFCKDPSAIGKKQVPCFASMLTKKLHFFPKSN

T3: Casp6-E35K large subunit with linker (LS-L) (human, UniProt P55212 24-193, E35K)
T3 construct: human Caspase-6, large subunit with linker (LS-L) left after complete self-processing at TETD23 and TEVD193; a minor amount is also cut at DVVD179 (LS); rare natural SNP variant E35K; source: E. coli BL21(DE3)pLysS, self-processed from full-length Casp6-E35K, purified
T3 sequence (looked up): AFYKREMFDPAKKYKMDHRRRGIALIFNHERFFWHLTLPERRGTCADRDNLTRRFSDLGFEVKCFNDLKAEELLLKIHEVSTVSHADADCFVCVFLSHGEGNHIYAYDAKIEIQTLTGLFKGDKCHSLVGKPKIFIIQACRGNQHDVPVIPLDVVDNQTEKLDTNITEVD


Assays:
[1] = target: T1, recombinant active Casp6; test: Colorimetric Ac-VEID-pNA cleavage assay; format: biochemical; details: 200 µM Ac-VEID-pNA, 200 nM Casp6
Experimental: (§1) To assess the potency of in silico hits, a fluorescence-based Ac-VEID-AFC cleavage assay was used to measure recombinant active Casp6 reaction rate in the absence or presence of 100 µM concentration of compounds. A 30% inhibition cut off was arbitrarily chosen for further investigation of putative inhibitors. […] AFC signal interference by compound intrinsic fluorescence was ruled out (Fig. S4). Casp6 inhibition was confirmed for seven compounds (C7, C13, C14, S2, S10, S11 and S13) using a colorimetric Ac-VEID-pNA cleavage assay (Table 2, Fig. S3).
(§2) In fluorescence-based Casp6 activity assay, 10 µM Ac-VEID-AFC was added to 20 nM Casp6 in SB with 100 μM compound and 1% dimethyl sulfoxide (DMSO), and reaction rate was measured for 20 min at 37 °C as above. Compound potency was calculated by normalising Ac-VEID-AFC cleavage rate to 1% DMSO control. In colorimetric Casp6 activity assay, 200 µM Ac-VEID-pNA (N-acetyl-Val-Glu-Ile-Asp-p-nitroanilide, Enzo Life Sciences) was added to 200 nM Casp6 in SB with 100 μM compound, and Ac-VEID-pNA cleavage rate was measured at 37 °C for 30 min in clear 96-well plate (Sartstedt, Nümbrecht, Germany) using Synergy H4 plate reader at 405 nm. Absorbance was converted to the released pNA amount based on a standard curve of 0–250 µM pNA. Cleavage rates were calculated from the linear assay phase and were normalised to 1% DMSO control. In Casp6-C163A cleavage assay, 0.5 ng/µl Casp6-WT was preincubated with 100 µM inhibitor, 5 µM Q-VD-OPh or 1% DMSO in SB (30 min, RT), followed by transfer on ice, addition of 0.5 µg/µl Casp6-C163A, and incubation (37 °C, 5, 10 and 15 min). Reactions were stopped by adding SDS-PAGE sample buffer (62.5 mM Tris pH 6.8, 2% SDS, 0.1 M DTT, 0.01% Bromphenol Blue, 10% glycerol) and heating (5 min, 95 °C). Samples (2 µl) were analysed on 15% SDS-PAGE gels, proteins were stained with Coomassie blue, and gels were de-stained with 10% acetic acid. The intensities of protein bands were quantified from scanned gels using ImageJ. The band intensity of Casp6-C163A without a prodomain was plotted against the time and the Casp6-C163A cleavage rates were calculated from the slopes of linear plots. The % activity of Casp6-WT in the presence of inhibitors was calculated relative to DMSO control.

[2] = target: T2, recombinant active Casp6 (Casp6-WT); test: Fluorescence-based Ac-VEID-AFC cleavage assay (Casp6 activity, IC50 determination); format: biochemical; details: 10 µM Ac-VEID-AFC; for % Inhibition with 100 µM compound (fluorescence assay): 20 nM Casp6, relative to 1% DMSO control; for IC50: fluorescence assay, 20 nM Casp6 active sites, read-out: IC50
Experimental: as §1
(§3) Casp6 active sites were quantified using zVAD-FMK (N-benzyloxycarbonyl-Val-Ala-Asp-(O-methyl)-fluoromethylketone, MP Biomedicals, Santa Ana, CA, USA)[51],[64]. Casp6 activity was measured in Stennicke’s buffer (SB: 20 mM piperazine-N,N′-bis-(2-ethanesulfonic acid) pH 7.2, 100 mM NaCl, 10 mM DTT, 1 mM EDTA, 0.1% 3-[(3-cholamidopropyl)-dimethylammonio]-2-hydroxy-1-propanesulfonic acid, 10% sucrose)[65] using 40 µM Ac-VEID-AFC (Ac-Val-Glu-Ile-Asp-7-Amino-4-trifluoromethylcoumarin, Enzo Life Sciences, Farmingdale, NY, USA)[64] and 10-250 nM active site titrated Casp6. Reactions were initiated by Ac-VEID-AFC addition and followed for 20 min at 37 °C in a black clear bottom 96-well microplate (Costar, Corning, NY, USA) in Synergy H4 Hybrid instrument (BioTek, Winooski, VT, USA) with excitation/emission at 380/505 nm. Released AFC was calculated from AFC standard curve (0-25 µM). Casp6 VEIDase activity (released pmol AFC/min) was calculated from the initial linear reaction part. Ac-VEID-AFC hydrolysis initial velocities were measured with 10 nM active-site titrated Casp6 and […] Ac-VEID-AFC. Initial velocities v versus substrate concentration [S] were fit to a rectangular hyperbola using Michaelis-Menten equation in GraphPad Prism 5 (GraphPad Software, La Jolla, CA, USA).
as §2
IC50 values were determined against 20 nM Casp6 active sites in fluorescence-based Casp6 activity assay with 10 µM Ac-VEID-AFC and 1 nM-500 µM inhibitor. IC50 was calculated with GraphPad Prism 5 by a nonlinear regression fit for log inhibitor vs relative Casp6 activity (% DMSO control) using a Hill slope of – 1, and top and bottom constraints of 100 and 0, respectively.

[3] = target: the molecule itself; test: crystal structure; apo, fully processed Casp6 variant; crystals from 100 mM sodium acetate pH 4.6, 2 M sodium chloride, hanging drop vapour diffusion at 22 °C
[4] = target: T3, Casp6-E35K large subunit with linker …; test: as above; details: both partners purified
[5] = Ac-VEID-AFC hydrolysis kinetics of recombinant Casp6 variants (Michaelis-Menten); format: biochemical, human; details: Ac-VEID-AFC hydrolysis, mean ± SD
Text: In this study, we investigated how naturally occurring rare missense variants of human CASP6 affect Casp6 activity and structure. […] A34, E35, A109, and T182 are not conserved in 12 human caspases and in Casp6 from different species (Fig. 1a,b). Recombinant Casp6-WT and the four variants were expressed in E. coli, purified, and active site titrated (Fig. S2) for functional analyses. Like Casp6-WT, Casp6 variants, underwent complete self-processing at TETD23, and TEVD193 sites, and slight self-cleavage at the DVVD179 site, generating mainly large subunit with a linker (LS-L), small subunit (SS), and a minor amount of large subunit (LS) (Fig. 1c,d).
as §3

% Inhibition with 100 µM compound (colorimetric assay) [1] [%]	% Inhibition with 100 µM compound (fluorescence assay) [2] [%]	IC50 [2] [µM]	Molecule	other results
56.3 ± 2.3	30.0 ± 6.0	289 ± 60.9	Nc1nc2c(s1)C(c1ccc(OCc3cccc(F)c3)cc1)CC(=O)N2 (stereo not shown) [Compound S11]	
41.9 ± 8.2	33.8 ± 12.1	159 ± 27.7	Cc1nn(-c2ccccc2)c2c1C(c1cccc(OCc3ccccc3)c1)C(C#N)=C(N)O2 (stereo not shown) [Compound S13]	

Second part, the molecule before the results:

Molecule	% Inhibition with 100 µM compound (colorimetric assay) [1] [%]	% Inhibition with 100 µM compound (fluorescence assay) [2] [%]	IC50 [2] [µM]	other results
O=C(Cn1cc(/C=C2/C(=O)NC(=O)N(Cc3ccco3)C2=O)c2ccccc21)NCC1CCCO1 (stereo not shown) [Compound S10]	42.6 ± 3.4	59.7 ± 3.8	30.2 ± 6.8	
Casp6-E35K, fully processed (mature, apo) (complex, human, human Caspase-6, large subunit with linker (LS-L) left after complete self-processing at TETD23 and TEVD193; a minor amount is also cut at DVVD179 (LS); rare natural SNP variant E35K; human Caspase-6, small subunit (SS) left after self-processing at TEVD193; One protomer (LS-L plus SS); two protomers form the dimer seen in the crystal; That the His tag sits on the small subunit is surmised from …) chain 1: AFYKREMFDPAKKYKMDHRRRGIALIFNHERFFWHLTLPERRGTCADRDNLTRRFSDLGFEVKCFNDLKAEELLLKIHEVSTVSHADADCFVCVFLSHGEGNHIYAYDAKIEIQTLTGLFKGDKCHSLVGKPKIFIIQACRGNQHDVPVIPLDVVDNQTEKLDTNITEVD chain 2: AASVYTLPAGADFLMCYSVAEGYYSHRETVNGSWYIQDLCEMLGKYGSSLEFTELLTLVNRKVSQRRVDFCKDPSAIGKKQVPCFASMLTKKLHFFPKSN				binding result [3]: binds
Casp6 small subunit (SS) from self-processed Casp6 (domain or fragment, human, UniProt P55212 194-293, looked up, human Caspase-6, small subunit (SS) left after self-processing at TEVD193; That the His tag sits on this chain is surmised from the plasmid's name; source: E. coli BL21(DE3)pLysS, self-processed from full-length Casp6 variant, purified) AASVYTLPAGADFLMCYSVAEGYYSHRETVNGSWYIQDLCEMLGKYGSSLEFTELLTLVNRKVSQRRVDFCKDPSAIGKKQVPCFASMLTKKLHFFPKSN				binding result [4]: binds
Casp6-K284A: Casp6 K284A alanine mutant from full-length construct, partially self-processed (protein, UniProt P55212 1-293, looked up, variant K284A, full-length, Casp6 K284A alanine mutant from full-length construct, partially self-processed) MSSASGLRRGHPAGGEENMTETDAFYKREMFDPAEKYKMDHRRRGIALIFNHERFFWHLTLPERRGTCADRDNLTRRFSDLGFEVKCFNDLKAEELLLKIHEVSTVSHADADCFVCVFLSHGEGNHIYAYDAKIEIQTLTGLFKGDKCHSLVGKPKIFIIQACRGNQHDVPVIPLDVVDNQTEKLDTNITEVDAASVYTLPAGADFLMCYSVAEGYYSHRETVNGSWYIQDLCEMLGKYGSSLEFTELLTLVNRKVSQRRVDFCKDPSAIGKKQVPCFASMLTAKLHFFPKSN				Km [5]: 32.6 ± 10.8 µM; kcat [5]: 2.0 ± 1.5 s⁻¹

From PMC6445123 (Scientific Reports, 2019)
